pIC50: −log10 of the molar value. Values after ≈ are worked out from the molar mass of the structure shown. Active and inactive are the calls of the source.
Experiments:
[1] = biological target: T1, Cytochrome P450 1A2 (Homo sapiens, UniProt P05177); assay: Inhibition of CYP1A2 (unknown origin); assay type: ADME
T1 sequence (P05177 whole entry): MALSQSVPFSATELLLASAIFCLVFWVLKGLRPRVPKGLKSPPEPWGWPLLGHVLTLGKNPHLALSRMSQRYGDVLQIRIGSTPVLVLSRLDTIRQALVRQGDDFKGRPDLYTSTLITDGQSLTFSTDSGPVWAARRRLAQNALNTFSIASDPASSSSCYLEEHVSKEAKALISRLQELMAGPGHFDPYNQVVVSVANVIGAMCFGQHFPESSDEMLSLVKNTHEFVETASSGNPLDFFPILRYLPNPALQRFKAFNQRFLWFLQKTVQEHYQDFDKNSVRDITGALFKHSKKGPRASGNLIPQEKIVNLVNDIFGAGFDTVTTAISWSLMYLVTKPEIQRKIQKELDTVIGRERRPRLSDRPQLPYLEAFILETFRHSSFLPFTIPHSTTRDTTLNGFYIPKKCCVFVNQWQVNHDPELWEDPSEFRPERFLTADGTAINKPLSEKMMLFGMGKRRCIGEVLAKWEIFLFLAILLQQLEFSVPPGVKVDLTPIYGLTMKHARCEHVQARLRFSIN

[2] = biological target: Cytochrome P450 2C9 (Homo sapiens, UniProt P11712); assay: Inhibition of CYP2C9 (unknown origin); assay type: ADME
[3] = biological target: Cytochrome P450 2C19 (Homo sapiens, UniProt P33261); assay: Inhibition of CYP2C19 (unknown origin); assay type: ADME
[4] = Aqueous solubility of the compound in pH 7.4 PBS buffer; assay type: physicochemical
[5] = Inhibition of NLRP3 inflammasome pathway in human THP-1 cells assessed as inhibition of LPS/MSU-induced IL-1beta secretion
[6] = biological target: Cytochrome P450 2D6 (Homo sapiens, UniProt P10635); assay: Inhibition of CYP2D6 (unknown origin); assay type: ADME
[7] = biological target: T2, Cytochrome P450 3A4 (Homo sapiens, UniProt P08684); assay: Inhibition of CYP3A4 (unknown origin) using testosterone as substrate; assay type: ADME
[8] = system: HEK-293T; assay: Cytotoxicity against human HEK293T cells assessed as cell viability at 50 uM measured after 24 hrs by CCK8 assay; assay type: toxicity, cell-based
[9] = biological target: T2, Cytochrome P450 3A4; assay: Inhibition of CYP3A4 (unknown origin) using midazolam as substrate; assay type: ADME
[10] = Plasma stability in human plasma assessed as compound remaining measured after 120 mins; assay type: ADME, cell-free; settings: read-out: Stability
[11] = Plasma stability in human plasma assessed as compound remaining measured after 30 mins; assay type: ADME, cell-free; settings: read-out: Stability
[12] = Plasma stability in human plasma assessed as compound remaining measured after 15 mins; assay type: ADME, cell-free; settings: read-out: Stability
[13] = Plasma stability in human plasma assessed as compound remaining measured immediately; assay type: ADME, cell-free; settings: read-out: Stability
[14] = Plasma stability in human plasma assessed as compound remaining measured after 5 mins; assay type: ADME, cell-free; settings: read-out: Stability
[15] = Plasma stability in human plasma assessed as compound remaining measured after 60 mins; assay type: ADME, cell-free; settings: read-out: Stability
[16] = Plasma stability in human plasma assessed as half life; assay type: ADME, cell-free
[17] = system: BMDM; assay: Effect on pro-IL-1beta expression in Nigericin-induced in C57BL/6J mouse BMDM cells at 3 to 30 uM by immunoblotting analysis; assay type: functional, cell-based; settings: dose 3-30 µM
[18] = system: BMDM; assay: Effect on NLPR3 expression in Nigericin-induced in C57BL/6J mouse BMDM cells at 3 to 30 uM by immunoblotting analysis; assay type: functional, cell-based; settings: dose 3-30 µM
[19] = system: HEK-293T; assay: Cytotoxicity against human HEK293T cells assessed as cell viability at 0.39 to 50 uM measured after 24 hrs by CCK8 assay; assay type: toxicity, cell-based; settings: dose 0.39-50 µM
[20] = system: Mus musculus; assay: Anti-inflammatory activity against MSU-induced peritonitis mouse model assessed as reduction in IL-1beta secretion in peritoneal cavity at 30 mg/kg, treated by gavage 30 mins before MSU induction measured after 6 hrs modeling by ELISA; assay type: functional, organism-based; settings: route po
[21] = system: Mus musculus; assay: Anti-arthritis activity against MSU-induced arthritis mouse model assessed as decrease in decrease in swelling in joint treated by gavage 30 mins before MSU induction measured for 7 days; assay type: functional, organism-based; settings: dose 5-30 mg/kg, route po, time 7.0 day
[22] = system: THP-1-M; assay: Effect on mitochondrial damage in Nigericin-induced human THP-1-M cells by MitoTracker staining based confocal microscopic analysis; assay type: functional, cell-based
[23] = system: THP-1-M; assay: Effect on ROS generation in Nigericin-induced human THP-1-M cells assessed as effect on increase in ROS generation by MitoSOX staining based confocal microscopic analysis; assay type: functional, cell-based
[24] = system: Mus musculus; assay: Anti-inflammatory activity against MSU-induced peritonitis mouse model assessed as reduction in IL-1beta secretion in peritoneal cavity treated by gavage 30 mins before MSU induction measured after 6 hrs modeling by ELISA; assay type: functional, organism-based; settings: dose 5-30 mg/kg, route po
[25] = system: BMDM; assay: Effect on NEK7 expression in Nigericin-induced in C57BL/6J mouse BMDM cells at 3 to 30 uM by immunoblotting analysis; assay type: functional, cell-based; settings: dose 3-30 µM
[26] = system: BMDM; assay: Effect on ASC expression in Nigericin-induced in C57BL/6J mouse BMDM cells at 3 to 30 uM by immunoblotting analysis; assay type: functional, cell-based; settings: dose 3-30 µM
[27] = system: Mus musculus; assay: Anti-arthritis activity against MSU-induced arthritis mouse model assessed as decrease in von Frey pain threshold treated by gavage 30 mins before MSU induction measured for day 3 to day 7; assay type: functional, organism-based; settings: dose 5-30 mg/kg, route po, time 3-7 day
[28] = system: BMDM; assay: Effect on pro-caspase 1 expression in Nigericin-induced in C57BL/6J mouse BMDM cells at 3 to 30 uM by immunoblotting analysis; assay type: functional, cell-based; settings: dose 3-30 µM

Sequence of Cytochrome P450 2C9 (P11712 whole entry): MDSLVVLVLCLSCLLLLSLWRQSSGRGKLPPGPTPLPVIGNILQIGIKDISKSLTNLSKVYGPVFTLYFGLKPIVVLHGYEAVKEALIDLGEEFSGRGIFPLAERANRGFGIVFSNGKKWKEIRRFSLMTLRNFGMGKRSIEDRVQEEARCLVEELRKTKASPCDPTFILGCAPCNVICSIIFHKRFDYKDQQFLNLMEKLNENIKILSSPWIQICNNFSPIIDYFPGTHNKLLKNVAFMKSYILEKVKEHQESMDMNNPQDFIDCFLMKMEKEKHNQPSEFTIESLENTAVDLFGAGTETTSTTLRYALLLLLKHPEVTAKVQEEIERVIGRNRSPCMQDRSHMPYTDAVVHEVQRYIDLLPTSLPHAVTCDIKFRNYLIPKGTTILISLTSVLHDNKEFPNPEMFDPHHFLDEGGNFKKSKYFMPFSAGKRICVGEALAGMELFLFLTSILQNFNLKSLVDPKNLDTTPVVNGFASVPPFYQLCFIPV
T2 sequence (P08684 whole entry): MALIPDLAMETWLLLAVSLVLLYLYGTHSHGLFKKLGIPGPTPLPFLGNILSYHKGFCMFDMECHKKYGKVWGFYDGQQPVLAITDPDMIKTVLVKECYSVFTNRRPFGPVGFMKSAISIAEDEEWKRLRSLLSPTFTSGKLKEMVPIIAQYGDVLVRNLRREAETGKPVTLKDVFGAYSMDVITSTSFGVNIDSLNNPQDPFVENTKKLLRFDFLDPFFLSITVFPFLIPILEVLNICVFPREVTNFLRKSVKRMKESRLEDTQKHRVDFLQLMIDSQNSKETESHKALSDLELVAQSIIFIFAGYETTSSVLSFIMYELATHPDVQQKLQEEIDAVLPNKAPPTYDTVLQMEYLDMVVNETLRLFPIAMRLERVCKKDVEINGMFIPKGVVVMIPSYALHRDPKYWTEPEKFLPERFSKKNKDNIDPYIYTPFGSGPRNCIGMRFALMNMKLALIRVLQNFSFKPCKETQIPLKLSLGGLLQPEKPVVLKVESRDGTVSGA
Sequence of Cytochrome P450 2C19 (P33261 whole entry): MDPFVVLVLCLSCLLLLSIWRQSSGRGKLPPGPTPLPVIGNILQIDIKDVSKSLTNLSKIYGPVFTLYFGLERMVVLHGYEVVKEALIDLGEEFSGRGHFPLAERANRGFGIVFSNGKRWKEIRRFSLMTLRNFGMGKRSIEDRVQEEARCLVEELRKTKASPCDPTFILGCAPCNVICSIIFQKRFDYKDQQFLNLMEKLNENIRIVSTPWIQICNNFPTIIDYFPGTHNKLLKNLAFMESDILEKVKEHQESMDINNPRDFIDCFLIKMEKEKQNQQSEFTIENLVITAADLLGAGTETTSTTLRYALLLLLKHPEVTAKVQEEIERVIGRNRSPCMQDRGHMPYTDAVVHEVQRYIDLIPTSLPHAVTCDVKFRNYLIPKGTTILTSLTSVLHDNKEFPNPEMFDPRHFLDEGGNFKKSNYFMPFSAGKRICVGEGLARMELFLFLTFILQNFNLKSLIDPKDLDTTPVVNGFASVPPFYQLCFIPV
Sequence of Cytochrome P450 2D6 (P10635 whole entry): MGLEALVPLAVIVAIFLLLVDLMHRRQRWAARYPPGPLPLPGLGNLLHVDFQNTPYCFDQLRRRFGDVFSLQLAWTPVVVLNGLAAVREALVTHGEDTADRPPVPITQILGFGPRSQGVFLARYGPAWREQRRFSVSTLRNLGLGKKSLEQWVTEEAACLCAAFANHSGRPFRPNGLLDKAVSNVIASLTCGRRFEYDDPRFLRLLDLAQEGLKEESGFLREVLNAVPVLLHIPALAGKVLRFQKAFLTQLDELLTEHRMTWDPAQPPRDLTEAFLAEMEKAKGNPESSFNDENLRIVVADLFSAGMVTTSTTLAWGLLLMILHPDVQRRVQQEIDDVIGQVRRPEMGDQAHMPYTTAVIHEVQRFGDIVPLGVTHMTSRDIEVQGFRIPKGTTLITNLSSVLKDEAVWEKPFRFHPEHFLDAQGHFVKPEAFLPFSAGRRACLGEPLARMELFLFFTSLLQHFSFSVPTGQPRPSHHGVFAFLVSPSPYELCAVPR

Row | pIC50 [1] | pIC50 [2] | pIC50 [3] | solubility [4] | pIC50 [5] | pIC50 [6] | pIC50 [7] | pIC50 [9] | remaining at 2 h [10] | remaining at 0.5 h [11] | remaining at 0.25 h [12] | remaining at 0 min [13] | remaining at 5 min [14] | remaining at 1 h [15] | SMILES | other results
1 | 5.28 | 5.33 | 5.16 | 0.012 µM (≈ 0.00475 µg/mL) |  | < 5.00 | < 5.00 | < 5.00 | 3.67% | 23.9% | 106% | 100% | 112% | 4.34% | COc1ccc(N2C(=O)/C(=C/c3ccccc3C(F)(F)F)SC2=S)cc1 | half-life [16]: 0.338 h
2 |  |  |  |  | < 4.30 |  |  |  |  |  |  |  |  |  | COc1ccc(N2C(=O)C(C)(C)N(C(=O)c3ccccc3C(F)(F)F)C2=S)cc1 | 
3 |  |  |  |  | < 4.70 |  |  |  |  |  |  |  |  |  | COc1ccccc1N1C(=O)C(C)(C)N(Cc2ccc(C)c(C)c2)C1=S | 
4 |  |  |  |  | < 4.70 |  |  |  |  |  |  |  |  |  | Cc1ccc(CN2C(=S)N(c3cccc(OCc4ccccc4)c3)C(=O)C2(C)C)cc1C | 
5 |  |  |  |  | 4.80 |  |  |  |  |  |  |  |  |  | COc1ccc(N2C(=O)C(C)(C)N(Cc3ccc(C(C)C)cc3)C2=S)cc1 | 
6 |  |  |  | 91.2 µM (≈ 23.7 µg/mL) |  |  |  |  |  |  |  |  |  |  | CC(C)NCC(O)COc1cccc2ccccc12 (configuration not stated) [PROPRANOLOL] | 

Second part, the molecule before the results:

Row | SMILES | pIC50 [1] | pIC50 [2] | pIC50 [3] | solubility [4] | pIC50 [5] | pIC50 [6] | pIC50 [7] | pIC50 [9] | remaining at 2 h [10] | remaining at 0.5 h [11] | remaining at 0.25 h [12] | remaining at 0 min [13] | remaining at 5 min [14] | remaining at 1 h [15] | other results
7 | COc1ccc(N2C(=O)C(C)(C)N(Cc3ccc(Br)c(C)c3)C2=S)cc1 | < 4.00 | 5.21 | 5.85 | 0.032 µM (≈ 0.0139 µg/mL) | 5.00 | < 5.00 | < 5.00 | < 5.00 | 97.3% | 104% | 96.6% | 100% | 99.2% | 105% | Activity [8]: Toxic; half-life [16]: 299 h
8 | CC1(C)C(=O)N(c2cccnc2)C(=S)N1Cc1ccc(S(N)(=O)=O)c(F)c1 |  |  |  |  | < 4.70 |  |  |  |  |  |  |  |  |  | 
9 | CC1(C)C(=O)N(c2ccc(C(F)(F)F)cc2)C(=S)N1Cc1ccc(S(N)(=O)=O)c(F)c1 | < 4.00 | < 5.00 | < 5.00 | 53.7 µM (≈ 25.5 µg/mL) | 5.32 | < 5.00 | < 5.00 | < 5.00 | 96.9% | 104% | 99.5% | 100% | 100% | 103% | Activity [17]: inactive; Activity [18]: inactive; Activity [19]: Non-Toxic; Activity [20]: Active; Activity [21]: Dose-Dependent Effect; Activity [22]: inactive; Activity [23]: inactive; Activity [24]: Dose-Dependent Effect; Activity [25]: inactive; Activity [26]: inactive; Activity [27]: Dose-Dependent Effect; Activity [28]: inactive
10 | CCCSc1ccc2nc(NC(=O)OC)[nH]c2c1 [ALBENDAZOLE] |  |  |  | 1.65 µM (≈ 0.438 µg/mL) |  |  |  |  |  |  |  |  |  |  | 
11 | Cc1ccc(CN2C(=S)N(c3ccc(C(C)(C)C)cc3)C(=O)C2(C)C)cc1C | < 4.00 | < 5.00 | 5.25 | 0.089 µM (≈ 0.0351 µg/mL) | 5.37 | < 5.00 | < 5.00 | < 5.00 | 93.6% | 102% | 103% | 100% | 99.8% | 113% | Activity [8]: Toxic; half-life [16]: 32.4 h
12 | COc1ccc(N2C(=O)C(C)(C)N(Cc3ccc(-c4ccccc4C#N)cc3)C2=S)cc1 |  |  |  |  | < 4.70 |  |  |  |  |  |  |  |  |  | 
13 | Cc1ccc(CN2C(=S)N(c3ccc(C#N)c(C(F)(F)F)c3)C(=O)C2(C)C)cc1C |  |  |  |  | < 4.70 |  |  |  |  |  |  |  |  |  | 
14 | COc1ccc(N2C(=O)C(C)(C)N(Cc3cc(C(F)(F)F)ccc3C(F)(F)F)C2=S)cc1 |  |  |  |  | < 4.70 |  |  |  |  |  |  |  |  |  | 
15 | CC1(C)C(=O)N(c2cc(C(F)(F)F)cc(C(F)(F)F)c2)C(=S)N1Cc1ccc(S(N)(=O)=O)c(F)c1 | < 4.00 | 4.99 | < 5.00 | 14 µM (≈ 7.61 µg/mL) | 5.08 | < 5.00 | < 5.00 | < 5.00 | 91.8% | 93.3% | 98.8% | 100% | 91.3% | 100% | Activity [8]: Toxic

Source: ChEMBL document CHEMBL6127076, “Scaffold hopping-driven optimization for the identification of NLRP3 inhibitors as potential gout therapeutics” (Eur J Med Chem, 2024)
